These results are taken from patent US12168802B2, “Methods of diagnosing and treating CD55 deficiency, hyperactivation of complement, angiopathic thrombosis and protein losing enteropathy (CHAPLE), a newly identified orphan disease” (The United States of America, as represented by the …, priority 2016, dated 2024).

In data set [1] the test system is human T cells. In words: C3d complement deposition on T cells incubated with normal human serum (flow cytometry). The class given is cell-based. The conditions noted are these: 5% nHS, 100 μM Compstatin. The procedure:
(§1) FIGS. 11A, 11B, and 11C. (A) C3d deposition on patient and control T cells were incubated in the presence or absence of 5% nHS with or without the addition of 100 μM Compstatin to block complement activation. (B) Ratio of C3a to C4a in culture supernatants after 24 hours of incubation with 5% nHS w/wo 100 μM compstatin. (C) Ratio of C5a to C4a in culture supernatants after 24 hours of incubation with 5% nHS or without 100 μM compstatin. ***=p<0.001.
Complement Deposition. T cells (Patient CD4^+ T cell blasts or Jurkat T cells) were collected and washed 3× in basal RPMI. Cells were then resuspended in basal media and rested for 2-3 hours at 37° C. to allow any deposited complement components to be cleared from the cell surface. Rested cells were then collected and resupended in basal RPMI or basal RPMI that had been adjusted to pH 6.5 (acidified media) to a final concentration of 1×10^6 cells/mL. Non-heat shocked pooled normal human serum was then added to cell suspension for the indicated amount of time. Human serum that had been heat shocked at 56° C. for 30 minutes was used as a negative control for complement activation. […] Cells were washed 3× and resuspended in FACS buffer (PBS, 1% FBS) and analyzed for C3d deposition by flow cytometry. […] Cells were then treated with trypsin/EDTA to release cells into suspension, washed, and then analyzed for C3d deposition as above. […]
In general terms: In flow cytometry, cells or beads pass a laser one at a time.

In data set [2] the test system is patient T cells. In words: Anaphylatoxin ratios (C3a/C4a, C5a/C4a) in T cell culture supernatants. As to conditions: 24 hours incubation with 5% nHS, 100 μM Compstatin. The format is cell-based, human. The procedure:
as §1
Compstatin Inhibits C3d Deposition on Human Cells. FIG. 11A illustrates that Compstatin inhibits C3d deposition on human T cells. […] In FIG. 11C, the ratio of C5a to C4a in culture supernatants of patient T cells after 24 hours of incubation with 5% nHS and 100 μM Compstatin is decreased, as compared to patient T cells not treated with Compstatin. ***=p<0.001.

The subject of data set [3] is HUVECs. As to the kind of experiment: Surface marker expression on HUVECs after TNFα or ATRA treatment (flow cytometry). The class given is cell-based, human. The procedure:
FIGS. 9A, 9B, 9C, 9D, 9E, 9F, 9G, 9H, 9I, 9J, 9K, 9L, 9M, 9N, 90, and 9P. Changes in inflammatory cytokine production by CD55 deficient cells promote pro-thrombotic changes in endothelial cells. Cytokine secretion in control and patient T cells following restimulation with anti-CD3 for 48 hours. Cells were either left untreated or treated with a combination of C3aR and C5aR1 inhibitors, both at 10 μM final concentration. Each patient point represents the average of at least three independent experiments. Results are for TNFα, IL10, or IFNγ (A, B, and C respectively). Anaphylatoxin receptor surface expression on proliferating CD4^+ T cells grown in complete RPMI supplemented with 100 u/mL IL2, isotype: filled grey line, sample: solid black line (D). C3aR expression on proliferating CD4^+ T cells grown in serum free X-vivo15 media supplemented with 100 u/mL IL-2 w/wo 10 nM ATRA, grey and black line respectively, isotype: filled grey line (E). IL-10 production in control and patient T cells stimulated with anti-CD3 and stimulatory antibodies directed against the indicated costimulatory molecules (F). Flow plots of thrombomodulin (TM) and Tissue Factor (TF) expression on HUVECs cultured for 24 hours w/wo 10 ng/mL TNFα (G). Quantification of the change in TM and TF expression on HUVECs in response to 24 hour culture with increasing doses of TNFα (H). Flow plots of CD46 and CD59 expression on HUVECs cultured for 24 hours w/wo 10 ng/mL TNFα (I). Quantification of CD46, CD59, and CD55 expression on HUVECs in response to 24 hour culture with increasing doses of TNFα (J, K, and L, respectively). Quantification of the change in TM and TF expression on HUVECs in response to 48 hour culture with increasing doses of ATRA (M). Quantification of CD46, CD59, and CD55 expression on HUVECs in response to 48 hour culture with increasing doses of ATRA (N, O, and P, respectively). (not significant (n.s.), * p<0.05, **p<0.01, ***p<0.001).
Flow Cytometry. Adherent cells were treated with 0.05% trypsin EDTA to lift them from the surface followed by addition of 5% FBS to inactivate the trypsin. Suspension cells were collected from culture following mixture of the culture by repeat pipetting. Cells were washed and resuspended in FACS buffer (1% FBS, 0.05% sodium azide, and 5 mM EDTA in PBS) at 2×10^6 cells/mL. Staining or isotype antibodies were added at 1:200 final dilutions and incubated with cells at 4° C. for 30 minutes to 1 hour. Cells were then washed 3× and resuspended in FACS buffer with 1% PFA and analyzed by flow cytometry. Flow files were analyzed on FlowJo version 9.9 or above (FlowJo, LLC, Ashland, OR, USA).
HUVEC Experiments. Huvecs grown to 80% confluency, and before passage 8, were trypsonized and replated in 24 well tissue culture plates at 200,000 cells/well in Huvec media. Twenty-four hours later the indicated concentrations of TNFα, IL10, or all trans retinoic acid (ATRA) were added. Twenty-four hours later in the cast of TNFα or IL10 treatment or 48 hours later in the case of ATRA, cells were trypsonized and stained for the indicated surface markers following the described flow cytometry staining protocol. Cells were then immediately analyzed.

Data set [4] has as its system human CD4+ T cells. As to the kind of experiment: Surface expression of C3aR and gut homing markers on CD4+ T cells grown with ATRA. The format is cell-based. The conditions noted are these: w/wo 10 nM ATRA. The procedure:
FIGS. 9A, 9B, 9C, 9D, 9E, 9F, 9G, 9H, 9I, 9J, 9K, 9L, 9M, 9N, 90, and 9P. Changes in inflammatory cytokine production by CD55 deficient cells promote pro-thrombotic changes in endothelial cells. Cytokine secretion in control and patient T cells following restimulation with anti-CD3 for 48 hours. Cells were either left untreated or treated with a combination of C3aR and C5aR1 inhibitors, both at 10 μM final concentration. Each patient point represents the average of at least three independent experiments. Results are for TNFα, IL10, or IFNγ (A, B, and C respectively). […] Quantification of the change in TM and TF expression on HUVECs in response to 24 hour culture with increasing doses of TNFα (H). […] Quantification of CD46, CD59, and CD55 expression on HUVECs in response to 24 hour culture with increasing doses of TNFα (J, K, and L, respectively). Quantification of the change in TM and TF expression on HUVECs in response to 48 hour culture with increasing doses of ATRA (M). Quantification of CD46, CD59, and CD55 expression on HUVECs in response to 48 hour culture with increasing doses of ATRA (N, O, and P, respectively). […]
Flow Cytometry. […] Cells were then washed 3× and resuspended in FACS buffer with 1% PFA and analyzed by flow cytometry. Flow files were analyzed on FlowJo version 9.9 or above (FlowJo, LLC, Ashland, OR, USA).

Setting [5] is: 48 hour culture with increasing doses of ATRA.

On to `CC[C@H](C)[C@H](N)C(=O)N[C@H]1CSSC[C@@H](C(=O)N[C@H](C(N)=O)[C@@H](C)O)NC(=O)[C@H](CCCN=C(N)N)NC(=O)[C@H](Cc2cnc[nH]2)NC(=O)[C@H](Cc2cnc[nH]2)NC(=O)CNC(=O)[C@H](Cc2c[nH]c3ccccc23)NC(=O)[C@H](CC(=O)O)NC(=O)[C@H](CCC(N)=O)NC(=O)[C@H](C(C)C)NC(=O)[C@H](C(C)C)NC1=O` [Compstatin], for which the “C3d deposition on patient T cells” value in data set [1] is “substantially inhibited”. In addition, in data set [2], the “ratio of C3a to C4a in culture supernatants” value was “considerably decreased” and the “ratio of C5a to C4a in culture supernatants” value is given as “decreased”.

With `CC1=C(/C=C/C(C)=C/C=C/C(C)=C/C(=O)O)C(C)(C)CCC1` [ATRA, all trans retinoic acid], in data set [3] (setting [5]), the CD46 expression result is given as “no change”, the CD55 expression result is recorded as “increase”, the CD59 expression result is on record as “no change” and the thrombomodulin expression result is “dose-dependent decrease”. Further, the “surface expression of C3aR on T cells” value in data set [4] (serum free X-vivo15 media) is recorded as “depended on the presence”. The “chemokine receptor CCR9 and integrin α4β7 (gut homing) on T cells” value in data set [4] (serum free conditions) is on record as “expressed”.

As for TNFα, in data set [3] (24 hour culture with TNFα), the “CD46 expression on endothelial cells” value is given as “decreased”; the “CD55 expression on endothelial cells” value was “modestly increasing”; the “CD59 expression on endothelial cells” value is given as “decreased”; the “thrombomodulin (TM) and tissue factor (TF) expression on endothelial cells” value is reported as “induces procoagulatory”.
